We go through 13 molecules from US20240415819A1, “MACROCYCLIC COMPOUNDS AS PROTEASOME SUBUNIT BETA TYPE-5 INHIBITORS” (Lead Discovery Center GmbH, priority 2021, published 2024).

Experiment [1] addresses T1, β5 subunit of the human constitutive proteasome (CPS) (Homo sapiens, UniProt P28074).
T1 construct: purchased Boston Biochem E-360
Put plainly: β5 inhibition assay, human constitutive proteasome (Suc-LLVY-AMC). The experiment is classed as biochemical. To be noted: IC50 class, Suc-LLVY-AMC substrate. How it is done:
The enzymatic activity of the β5 subunit of the human constitutive proteasome (CPS) is analyzed. In another assay, which differs from the assay of the human constitutive proteasome only in using the human immunoproteasome (IPS) the enzymatic activity of the β5 subunit of the human immunoproteasome (IPS) is analyzed. […] Inhibition is indicated as IC50 [nM] (“-”=not measured).

In experiment [2] the target is T2, β5 subunit of the human immunoproteasome (IPS) (Homo sapiens, UniProt P28062).
T2 construct: purchased Boston Biochem E-370
As to the kind of experiment: β5 inhibition assay, human immunoproteasome (Suc-LLVY-AMC). The experiment is classed as biochemical. The following applies: IC50 class, Suc-LLVY-AMC substrate. Summed up:
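Human immunoproteasome (1 nM final) was preincubated 10 min at RT with compound in 100 mM HEPES pH 7.5, 50 mM NaCl, 0.02% SDS, 1 mM DTT. Suc-LLVY-AMC (22.6 μM final) was then added for 4 h at RT in the dark. After stopping with 1 μM bortezomib, AMC fluorescence was read (ex 355/em 460 nm).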

The test system of experiment [3] is A549 (human lung carcinoma cell line). Put plainly: Glo assay of A549 cells (Table 3; ProteasomeGlo plating scheme). The experiment is classed as cell-based. The following applies: Homo sapiens. The method in brief: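 IC50 values (nM) come from a cell-based chymotrypsin-like Proteasome-Glo luminescence assay. Compound exposure ran 105 min at 37° C.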
The test system of experiment [4] is Hs 746T (human gastric carcinoma cell line). Put plainly: 48 hr CTG viability assay, Hs 746T. The experiment is classed as cell-based. The following applies: Hs746T. The method in brief: (§1)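 Growth inhibition by compound over 48 h; IC50 (nM) derived from duplicate CellTiter-Glo luminescence readings across 0.0015–10 uM.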
The subject of experiment [5] is MM1 S (B lymphoblast cell line). As to the kind of experiment: 48 hr CTG viability assay, MM1S. The experiment is classed as cell-based. To be noted: Homo sapiens. Summed up:
as §1

The test system of experiment [6] is RPMI 8226 (B lymphocyte cell line, multiple myeloma). Put plainly: 48 hr CTG viability assay, RPMI 8226. It is filed as cell-based. To be noted: Homo sapiens. Summed up: as §1
[7] abbreviates: A549 cells, read-out: PGLo A549.
Where [8] appears, read: 48 hr CTG, read-out: Hs 746T IC50.
Setting [9] is: RPMI-8226, 48 hr CTG, read-out: RPMI-8226 IC50.

SMILES strings stand for the structures. Like-named read-outs stand apart in the source and are kept apart here. Bounds are passed on as bounds.

Consider `Cc1ccc2cc1CNC(=O)[C@H](CCc1ccccc1)NC(=O)[C@@H](NC(=O)CCNCC1CCC1)CC(=O)N1CCCC(CCO2)C1` (stereo partly drawn) [Compound 674, 3-((cyclobutylmethyl)amino)-N-((9S,12S)-5^4-methyl-8,11,14-trioxo-9-phenethyl-4-oxa-7,10-diaza-1(3,1)-piperidina-5(1,3)-benzenacyclotetradecaphane-12-yl)propanamide], for which the IC50 in experiment [1] was less than 100 nM; in experiment [2], less than 100 nM; in experiment [3] (setting [7]) it was less than 100 nM; in experiment [4] (setting [8]), less than 100 nM; in experiment [5] (48 hr CTG, read-out: MM1S IC50), less than 100 nM; in experiment [6] (setting [9]) it was less than 100 nM.

`Cc1ccc2cc1CNC(=O)[C@H](CCc1ccccc1)NC(=O)[C@@H](NC(=O)CCN1CCC1)CC(=O)N1CCCC(CCO2)C1` (stereo partly drawn) [Compound 702, 3-(azetidin-1-yl)-N-((9S,12S)-5^4-methyl-8,11,14-trioxo-9-phenethyl-4-oxa-7,10-diaza-1(3,1)-piperidina-5(1,3)-benzenacyclotetradecaphane-12-yl)propanamide]: the IC50 in experiment [1] is less than 100 nM; in experiment [2], less than 100 nM; in experiment [3] (A549, read-out: PGLo A549 [nM]), less than 100 nM; in experiment [4] (48 h, read-out: Hs 746T IC50 [nM]) it was less than 100 nM; in experiment [5] (48 h, read-out: MM1S IC50 [nM]) it was less than 100 nM; in experiment [6] (RPMI-8226, 48 h, read-out: RPMI-8226 IC50 [nM]), less than 100 nM.

Regarding `Cc1ccc2cc1CNC(=O)[C@H](CCc1ccccc1)NC(=O)[C@@H](NC(=O)C13CC(F)(C1)C3)CC(=O)N1CCCC(CCO2)C1` (stereo partly drawn) [Compound 633, 3-fluoro-N-((9S,12S)-5^4-methyl-8,11,14-trioxo-9-phenethyl-4-oxa-7,10-diaza-1(3,1)-piperidina-5(1,3)-benzenacyclotetradecaphane-12-yl)bicyclo[1.1.1]pentane-1-carboxamide], the IC50 is less than 100 nM in experiment [1]; less than 100 nM in experiment [2]; less than 100 nM in experiment [3] (setting [7]); less than 100 nM in experiment [4] (setting [8]); less than 100 nM in experiment [5] (48 hr CTG, read-out: MM1S IC50); less than 100 nM in experiment [6] (setting [9]).

In the case of `Cc1ccc2cc1CNC(=O)[C@H](CCc1ccccc1)NC(=O)[C@@H](NC(=O)OC1CCCCC1)CC(=O)N1CCCC(CCO2)C1` (stereo partly drawn) [Compound 632, cyclohexyl ((9S,12S)-5^4-methyl-8,11,14-trioxo-9-phenethyl-4-oxa-7,10-diaza-1(3,1)-piperidina-5(1,3)-benzenacyclotetradecaphane-12-yl)carbamate], the IC50 in experiment [1] was less than 100 nM; in experiment [2], less than 100 nM; in experiment [3] (setting [7]), less than 100 nM; in experiment [4] (setting [8]), less than 100 nM; in experiment [5] (48 hr CTG, read-out: MM1S IC50), less than 100 nM; in experiment [6] (setting [9]), less than 100 nM.

Take `CC(=O)c1ccc(CC(=O)N[C@H]2CCC(=O)NCCCCOc3ccc(C)c(c3)CNC(=O)[C@H](CCc3ccccc3)NC2=O)cc1` [Compound 707, 2-(4-acetylphenyl)-N-((11S,14S)-1^4-methyl-8,12,15-trioxo-1^4-phenethyl-2-oxa-7,13,16-triaza-1(1,3)-benzenacycloheptadecaphane-11-yl)acetamide]: the IC50 in experiment [1] was less than 100 nM; in experiment [2], less than 100 nM; in experiment [3] (setting [7]) it was less than 100 nM; in experiment [4] (setting [8]), less than 100 nM; in experiment [5] (48 hr CTG, read-out: MM1S IC50), less than 100 nM; in experiment [6] (setting [9]), less than 100 nM.

In the case of `Cc1ccc2cc1CNC(=O)[C@H](CCc1ccccc1)NC(=O)[C@@H](NC(=O)N1CCCc3cc(N)ccc31)CC(=O)N1CCCC(CCO2)C1` (stereo partly drawn) [Compound 667, 6-amino-N-((9S,12S)-5^4-methyl-8,11,14-trioxo-9-phenethyl-4-oxa-7,10-diaza-1(3,1)-piperidina-5(1,3)-benzenacyclotetradecaphane-12-yl)-3,4-dihydroquinoline-1(2H)-carboxamide], the IC50 in experiment [1] was less than 100 nM; in experiment [2], less than 100 nM; in experiment [3] (setting [7]), less than 100 nM; in experiment [4] (setting [8]) it was less than 100 nM; in experiment [5] (48 hr CTG, read-out: MM1S IC50), less than 100 nM; in experiment [6] (setting [9]), less than 100 nM.

`Cc1ccc2cc1CNC(=O)[C@H](CCc1ccccc1)NC(=O)[C@@H](NC(=O)N1Cc3ccc(N)cc3C1)CC(=O)N1CCCC(CCO2)C1` (stereo partly drawn) [Compound 687, 5-amino-N-((9S,12S)-5^4-methyl-8,11,14-trioxo-9-phenethyl-4-oxa-7,10-diaza-1(3,1)-piperidina-5(1,3)-benzenacyclotetradecaphane-12-yl)isoindoline-2-carboxamide]: the IC50 in experiment [1] was less than 100 nM; in experiment [2], less than 100 nM; in experiment [3] (setting [7]), less than 100 nM; in experiment [4] (setting [8]), less than 100 nM; in experiment [5] (48 hr CTG, read-out: MM1S IC50) it was less than 100 nM; in experiment [6] (setting [9]) it was less than 100 nM.

As to `Cc1ccc2cc1CNC(=O)[C@H](CCc1ccccc1)NC(=O)[C@@H](NC(=O)Cc1ccccc1)CCOC(=O)N1CCCC(CCO2)C1` (stereo partly drawn) [Compound 624, N-((9S,12S)-5^4-methyl-8,11,16-trioxo-9-phenethyl-4,15-dioxa-7,10-diaza-1(3,1)-piperidina-5(1,3)-benzenacyclohexadecaphane-12-yl)-2-phenylacetamide], the IC50 in experiment [1] was less than 100 nM; in experiment [2], less than 100 nM; in experiment [3] (setting [7]) it was less than 100 nM; in experiment [4] (setting [8]), less than 100 nM; in experiment [5] (48 hr CTG, read-out: MM1S IC50), less than 100 nM; in experiment [6] (setting [9]), less than 100 nM.

As for `Cc1ccc2cc1CNC(=O)[C@H](CCc1ccccc1)NC(=O)[C@@H](NC(=O)Cc1ccc3ncccc3c1)CC(=O)N1CCCC(CCO2)C1` (stereo partly drawn) [Compound 586, N-((9S,12S)-5^4-methyl-8,11,14-trioxo-9-phenethyl-4-oxa-7,10-diaza-1(3,1)-piperidina-5(1,3)-benzenacyclotetradecaphane-12-yl)-2-(quinolin-6-yl)acetamide], the IC50 was less than 100 nM in experiment [1]; less than 100 nM in experiment [2]; less than 100 nM in experiment [3] (setting [7]); less than 100 nM in experiment [4] (setting [8]); less than 100 nM in experiment [5] (48 hr CTG, read-out: MM1S IC50); less than 100 nM in experiment [6] (setting [9]).

Turning to `Cc1ccc2cc1CNC(=O)[C@H](CCc1ccccc1)NC(=O)[C@@H](NC(=O)[C@@H](N)CCC(=O)O)CC(=O)N1CCCC(CCO2)C1` (stereo partly drawn) [Compound 724, (4S)-4-amino-5-(((9S,12S)-5^4-methyl-8,11,14-trioxo-9-phenethyl-4-oxa-7,10-diaza-1(3,1)-piperidina-5(1,3)-benzenacyclotetradecaphane-12-yl)amino)-5-oxopentanoic acid], the IC50 in experiment [1] was less than 100 nM; in experiment [2], less than 100 nM; in experiment [3] (setting [7]), less than 100 nM; in experiment [4] (setting [8]), 500 to 1000 nM; in experiment [5] (48 hr CTG, read-out: MM1S IC50), 100 to 500 nM; in experiment [6] (setting [9]), 100 to 500 nM.

As to `Cc1ccc2cc1CNC(=O)[C@H](CCc1ccccc1)NC(=O)[C@@H](NS(=O)(=O)CC(F)(F)F)CC(=O)N1CCCC(CCO2)C1` (stereo partly drawn) [Compound 601, 2,2,2-trifluoro-N-((9S,12S)-5^4-methyl-8,11,14-trioxo-9-phenethyl-4-oxa-7,10-diaza-1(3,1)-piperidina-5(1,3)-benzenacyclotetradecaphane-12-yl)ethane-1-sulfonamide], the IC50 in experiment [1] is less than 100 nM; in experiment [2], less than 100 nM; in experiment [3] (setting [7]), less than 100 nM; in experiment [4] (setting [8]), less than 100 nM; in experiment [5] (48 hr CTG, read-out: MM1S IC50) it was less than 100 nM; in experiment [6] (setting [9]), less than 100 nM.

Consider `Cc1ccc2cc1CNC(=O)[C@H](CCc1ccccc1)NC(=O)[C@@H](NC(=O)N1CCC(O)CC1)CC(=O)N1CCCC(CCO2)C1` (stereo partly drawn) [Compound 681, 4-hydroxy-N-((9S,12S)-5^4-methyl-8,11,14-trioxo-9-phenethyl-4-oxa-7,10-diaza-1(3,1)-piperidina-5(1,3)-benzenacyclotetradecaphane-12-yl)piperidine-1-carboxamide], for which the IC50 in experiment [1] is less than 100 nM; in experiment [2], less than 100 nM; in experiment [3] (setting [7]), less than 100 nM; in experiment [4] (setting [8]), less than 100 nM; in experiment [5] (48 hr CTG, read-out: MM1S IC50), less than 100 nM; in experiment [6] (setting [9]), less than 100 nM.

In the case of `COc1ccccc1OCCC(=O)N[C@H]1CC(=O)N2CCCC(CCOc3ccc(C)c(c3)CNC(=O)[C@H](CCc3ccccc3)NC1=O)C2` (stereo partly drawn) [Compound 588, 3-(2-methoxyphenoxy)-N-((9S,12S)-5^4-methyl-8,11,14-trioxo-9-phenethyl-4-oxa-7,10-diaza-1(3,1)-piperidina-5(1,3)-benzenacyclotetradecaphane-12-yl)propanamide], the IC50 is less than 100 nM in experiment [1]; less than 100 nM in experiment [2]; less than 100 nM in experiment [3] (setting [7]); less than 100 nM in experiment [4] (setting [8]); less than 100 nM in experiment [5] (48 hr CTG, read-out: MM1S IC50); less than 100 nM in experiment [6] (setting [9]).
